# PubChem BioAssay (NCI)
#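 Step 1: Grow cells in 96-well plates. Step 2: Expose to compound for 48 hours at 5 concentrations. Step 3: Interpolate endpoints linearly; if unreached, use highest concentration. Definition used: TGI = concentration required for complete inhibition of growth.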
# Key:
# Test in all cases: inhibition of tumour cell growth, NCI panel, 48 h
# 786-0 renal = system: 786-0 renal
# A549 NSCLC = system: A549 NSCLC
# CCRF-CEM leukemia = system: CCRF-CEM leukemia
# COLO 205 colon = system: COLO 205 colon
# DLD-1 colon = system: DLD-1 colon
# EKVX NSCLC = system: EKVX NSCLC
# HCC-2998 colon = system: HCC-2998 colon
# HCT-116 colon = system: HCT-116 colon
# HL-60(TB) leukemia = system: HL-60(TB) leukemia
# HOP-62 NSCLC = system: HOP-62 NSCLC
# HOP-92 NSCLC = system: HOP-92 NSCLC
# HT29 colon = system: HT29 colon
# IGROV1 ovarian = system: IGROV1 ovarian
# K-562 leukemia = system: K-562 leukemia
# KM12 colon = system: KM12 colon
# KM20L2 colon = system: KM20L2 colon
# LOX IMVI melanoma = system: LOX IMVI melanoma
# LXFL 529 NSCLC = system: LXFL 529 NSCLC
# M14 melanoma = system: M14 melanoma
# M19-MEL melanoma = system: M19-MEL melanoma
# MALME-3M melanoma = system: MALME-3M melanoma
# MOLT-4 leukemia = system: MOLT-4 leukemia
# NCI-H226 lung = system: NCI-H226 lung
# NCI-H23 lung = system: NCI-H23 lung
# NCI-H460 lung = system: NCI-H460 lung
# NCI-H522 lung = system: NCI-H522 lung
# OVCAR-3 ovarian = system: OVCAR-3 ovarian
# OVCAR-5 ovarian = system: OVCAR-5 ovarian
# OVCAR-8 ovarian = system: OVCAR-8 ovarian
# RPMI-8226 leukemia = system: RPMI-8226 leukemia
# RXF 393 renal = system: RXF 393 renal
# RXF-631 renal = system: RXF-631 renal
# SF-268 CNS = system: SF-268 CNS
# SF-295 CNS = system: SF-295 CNS
# SF-539 CNS = system: SF-539 CNS
# SK-MEL-2 melanoma = system: SK-MEL-2 melanoma
# SK-MEL-28 melanoma = system: SK-MEL-28 melanoma
# SK-MEL-5 melanoma = system: SK-MEL-5 melanoma
# SK-OV-3 ovarian = system: SK-OV-3 ovarian
# SNB-75 CNS = system: SNB-75 CNS
# SNB-78 CNS = system: SNB-78 CNS
# SW-620 colon = system: SW-620 colon
# TK-10 renal = system: TK-10 renal
# U251 CNS = system: U251 CNS
# UACC-257 melanoma = system: UACC-257 melanoma
# UACC-62 melanoma = system: UACC-62 melanoma
# UO-31 renal = system: UO-31 renal
# A498 renal = system: A498 renal
# CAKI-1 renal = system: CAKI-1 renal
# DMS 114 small cell lung = system: DMS 114 small cell lung
# DMS 273 small cell lung = system: DMS 273 small cell lung
# HCT-15 colon = system: HCT-15 colon
# OVCAR-4 ovarian = system: OVCAR-4 ovarian
# SN12C renal = system: SN12C renal
# SNB-19 CNS = system: SNB-19 CNS
# XF 498 CNS = system: XF 498 CNS
# ACHN renal = system: ACHN renal
# HOP-18 NSCLC = system: HOP-18 NSCLC
# SR leukemia = system: SR leukemia
compound,measurement,setting,value
C/C(CC(=O)Nc1cc(C)ccc1C)=N\NC(=O)c1ccncc1,TGI,786-0 renal,> 100 µM
same,TGI,A549 NSCLC,> 100 µM
same,TGI,CCRF-CEM leukemia,> 100 µM
same,TGI,COLO 205 colon,> 100 µM
same,TGI,DLD-1 colon,> 100 µM
same,TGI,EKVX NSCLC,> 100 µM
same,TGI,HCC-2998 colon,> 100 µM
same,TGI,HCT-116 colon,> 100 µM
same,TGI,HL-60(TB) leukemia,> 100 µM
same,TGI,HOP-62 NSCLC,> 100 µM
same,TGI,HOP-92 NSCLC,> 100 µM
same,TGI,HT29 colon,> 100 µM
same,TGI,IGROV1 ovarian,> 100 µM
same,TGI,K-562 leukemia,> 100 µM
same,TGI,KM12 colon,> 100 µM
same,TGI,KM20L2 colon,> 100 µM
same,TGI,LOX IMVI melanoma,> 100 µM
same,TGI,LXFL 529 NSCLC,> 100 µM
same,TGI,M14 melanoma,> 100 µM
same,TGI,M19-MEL melanoma,> 100 µM
same,TGI,MALME-3M melanoma,> 100 µM
same,TGI,MOLT-4 leukemia,> 100 µM
same,TGI,NCI-H226 lung,> 100 µM
same,TGI,NCI-H23 lung,> 100 µM
same,TGI,NCI-H460 lung,> 100 µM
same,TGI,NCI-H522 lung,> 100 µM
same,TGI,OVCAR-3 ovarian,> 100 µM
same,TGI,OVCAR-5 ovarian,> 100 µM
same,TGI,OVCAR-8 ovarian,> 100 µM
same,TGI,RPMI-8226 leukemia,> 100 µM
same,TGI,RXF 393 renal,> 100 µM
same,TGI,RXF-631 renal,> 100 µM
same,TGI,SF-268 CNS,> 100 µM
same,TGI,SF-295 CNS,> 100 µM
same,TGI,SF-539 CNS,> 100 µM
same,TGI,SK-MEL-2 melanoma,> 100 µM
same,TGI,SK-MEL-28 melanoma,> 100 µM
same,TGI,SK-MEL-5 melanoma,> 100 µM
same,TGI,SK-OV-3 ovarian,> 100 µM
same,TGI,SNB-75 CNS,> 100 µM
same,TGI,SNB-78 CNS,> 100 µM
same,TGI,SW-620 colon,> 100 µM
same,TGI,TK-10 renal,> 100 µM
same,TGI,U251 CNS,> 100 µM
same,TGI,UACC-257 melanoma,> 100 µM
same,TGI,UACC-62 melanoma,> 100 µM
same,TGI,UO-31 renal,> 100 µM
Cc1ccc(NC(=O)CC(=O)n2nc(C)c(N=Nc3ccccc3C(=O)O)c2C)cc1,TGI,786-0 renal,> 100 µM
same,TGI,A498 renal,> 100 µM
same,TGI,A549 NSCLC,> 100 µM
same,TGI,CAKI-1 renal,> 100 µM
same,TGI,CCRF-CEM leukemia,> 100 µM
same,TGI,COLO 205 colon,> 100 µM
same,TGI,DLD-1 colon,> 100 µM
same,TGI,DMS 114 small cell lung,> 100 µM
same,TGI,DMS 273 small cell lung,> 100 µM
same,TGI,EKVX NSCLC,> 100 µM
same,TGI,HCC-2998 colon,> 100 µM
same,TGI,HCT-116 colon,> 100 µM
same,TGI,HCT-15 colon,> 100 µM
same,TGI,HL-60(TB) leukemia,> 100 µM
same,TGI,HOP-62 NSCLC,> 100 µM
same,TGI,HT29 colon,> 100 µM
same,TGI,IGROV1 ovarian,> 100 µM
same,TGI,K-562 leukemia,> 100 µM
same,TGI,KM12 colon,> 100 µM
same,TGI,KM20L2 colon,> 100 µM
same,TGI,LOX IMVI melanoma,> 100 µM
same,TGI,LXFL 529 NSCLC,> 100 µM
same,TGI,M14 melanoma,> 100 µM
same,TGI,M19-MEL melanoma,> 100 µM
same,TGI,MALME-3M melanoma,> 100 µM
same,TGI,MOLT-4 leukemia,> 100 µM
same,TGI,NCI-H23 lung,> 100 µM
same,TGI,NCI-H460 lung,> 100 µM
same,TGI,NCI-H522 lung,> 100 µM
same,TGI,OVCAR-3 ovarian,> 100 µM
same,TGI,OVCAR-4 ovarian,> 100 µM
same,TGI,OVCAR-5 ovarian,> 100 µM
same,TGI,OVCAR-8 ovarian,> 100 µM
same,TGI,RPMI-8226 leukemia,> 100 µM
same,TGI,RXF-631 renal,> 100 µM
same,TGI,SF-268 CNS,> 100 µM
same,TGI,SF-295 CNS,> 100 µM
same,TGI,SF-539 CNS,> 100 µM
same,TGI,SK-MEL-2 melanoma,> 100 µM
same,TGI,SK-MEL-28 melanoma,> 100 µM
same,TGI,SK-MEL-5 melanoma,> 100 µM
same,TGI,SK-OV-3 ovarian,> 100 µM
same,TGI,SN12C renal,> 100 µM
same,TGI,SNB-19 CNS,> 100 µM
same,TGI,SNB-75 CNS,> 100 µM
same,TGI,SNB-78 CNS,> 100 µM
same,TGI,SW-620 colon,> 100 µM
same,TGI,TK-10 renal,> 100 µM
same,TGI,U251 CNS,> 100 µM
same,TGI,UACC-257 melanoma,> 100 µM
same,TGI,UACC-62 melanoma,> 100 µM
same,TGI,UO-31 renal,> 100 µM
same,TGI,XF 498 CNS,> 100 µM
COc1cc(Nc2nc3ccccc3nc2-c2cccs2)cc(OC)c1OC,TGI,786-0 renal,> 100 µM
same,TGI,A549 NSCLC,> 100 µM
same,TGI,ACHN renal,> 100 µM
same,TGI,CCRF-CEM leukemia,> 100 µM
same,TGI,COLO 205 colon,> 10 µM
same,TGI,DLD-1 colon,> 100 µM
same,TGI,DMS 273 small cell lung,> 100 µM
same,TGI,EKVX NSCLC,> 100 µM
same,TGI,HCC-2998 colon,> 100 µM
same,TGI,HCT-116 colon,> 100 µM
same,TGI,HCT-15 colon,> 100 µM
same,TGI,HL-60(TB) leukemia,> 100 µM
same,TGI,HOP-18 NSCLC,> 100 µM
same,TGI,HOP-62 NSCLC,> 100 µM
same,TGI,HOP-92 NSCLC,83.9 µM
same,TGI,HT29 colon,> 100 µM
same,TGI,KM20L2 colon,> 100 µM
same,TGI,LOX IMVI melanoma,> 100 µM
same,TGI,LXFL 529 NSCLC,> 100 µM
same,TGI,M19-MEL melanoma,> 100 µM
same,TGI,MALME-3M melanoma,> 100 µM
same,TGI,MOLT-4 leukemia,> 100 µM
same,TGI,NCI-H226 lung,> 100 µM
same,TGI,NCI-H23 lung,> 100 µM
same,TGI,NCI-H460 lung,> 100 µM
same,TGI,OVCAR-3 ovarian,> 100 µM
same,TGI,OVCAR-5 ovarian,> 100 µM
same,TGI,OVCAR-8 ovarian,> 10 µM
same,TGI,RPMI-8226 leukemia,> 100 µM
same,TGI,RXF 393 renal,> 100 µM
same,TGI,SF-268 CNS,> 100 µM
same,TGI,SF-295 CNS,> 100 µM
same,TGI,SF-539 CNS,> 100 µM
same,TGI,SK-MEL-2 melanoma,> 100 µM
same,TGI,SK-MEL-28 melanoma,> 100 µM
same,TGI,SK-OV-3 ovarian,> 100 µM
same,TGI,SN12C renal,> 100 µM
same,TGI,SNB-19 CNS,> 100 µM
same,TGI,SNB-75 CNS,> 100 µM
same,TGI,SNB-78 CNS,> 100 µM
same,TGI,SR leukemia,> 100 µM
same,TGI,SW-620 colon,> 100 µM
same,TGI,TK-10 renal,> 100 µM
same,TGI,U251 CNS,> 10 µM
same,TGI,UACC-257 melanoma,> 100 µM
same,TGI,UACC-62 melanoma,> 100 µM
same,TGI,UO-31 renal,> 10 µM
same,TGI,XF 498 CNS,76.6 µM
O=C1c2ccccc2C(=O)c2c1cc(S(=O)(=O)O)c(O)c2O,TGI,786-0 renal,> 100 µM
same,TGI,A498 renal,> 100 µM
same,TGI,A549 NSCLC,> 100 µM
same,TGI,ACHN renal,> 100 µM
same,TGI,CAKI-1 renal,> 100 µM
same,TGI,CCRF-CEM leukemia,> 100 µM
same,TGI,COLO 205 colon,> 100 µM
same,TGI,DLD-1 colon,> 100 µM
same,TGI,DMS 114 small cell lung,> 100 µM
same,TGI,EKVX NSCLC,> 100 µM
same,TGI,HCC-2998 colon,> 100 µM
same,TGI,HCT-116 colon,> 100 µM
same,TGI,HCT-15 colon,> 100 µM
same,TGI,HOP-62 NSCLC,> 100 µM
same,TGI,HOP-92 NSCLC,> 100 µM
same,TGI,HT29 colon,> 100 µM
same,TGI,IGROV1 ovarian,> 100 µM
same,TGI,K-562 leukemia,> 100 µM
same,TGI,KM12 colon,> 100 µM
same,TGI,LOX IMVI melanoma,> 100 µM
same,TGI,LXFL 529 NSCLC,> 100 µM
same,TGI,M14 melanoma,> 100 µM
same,TGI,M19-MEL melanoma,> 100 µM
same,TGI,MOLT-4 leukemia,> 100 µM
same,TGI,NCI-H226 lung,> 100 µM
same,TGI,NCI-H23 lung,> 100 µM
same,TGI,NCI-H460 lung,> 100 µM
same,TGI,NCI-H522 lung,> 100 µM
same,TGI,OVCAR-3 ovarian,> 100 µM
same,TGI,OVCAR-4 ovarian,> 100 µM
same,TGI,OVCAR-5 ovarian,> 100 µM
same,TGI,OVCAR-8 ovarian,> 100 µM
same,TGI,RPMI-8226 leukemia,> 100 µM
same,TGI,RXF 393 renal,> 100 µM
same,TGI,RXF-631 renal,> 100 µM
same,TGI,SF-268 CNS,> 100 µM
same,TGI,SF-295 CNS,> 100 µM
same,TGI,SF-539 CNS,> 100 µM
same,TGI,SK-MEL-2 melanoma,> 100 µM
same,TGI,SK-MEL-28 melanoma,> 100 µM
same,TGI,SK-OV-3 ovarian,> 100 µM
same,TGI,SN12C renal,> 100 µM
same,TGI,SNB-75 CNS,> 100 µM
same,TGI,SNB-78 CNS,> 100 µM
same,TGI,SR leukemia,> 100 µM
same,TGI,SW-620 colon,> 100 µM
same,TGI,TK-10 renal,> 100 µM
same,TGI,U251 CNS,> 100 µM
same,TGI,UACC-257 melanoma,> 100 µM
same,TGI,UACC-62 melanoma,> 100 µM
same,TGI,UO-31 renal,> 100 µM
same,TGI,XF 498 CNS,32.6 µM
